{"source": "patent US5604245A", "about": "“Use of 4-amino-1-(2-pyridyl)piperidines for the preparation of a medicament for the treatment of conditions deriving from disorders of the serotoninergic systems mediated by 5-HT3 receptors” (priority 1991, dated 1997)", "key": {"5-HT3 receptors [1]": {"biological_target": "T1, 5-HT3 receptors (Rattus norvegicus, UniProt P35563)", "T1 sequence (P35563 24-483)": "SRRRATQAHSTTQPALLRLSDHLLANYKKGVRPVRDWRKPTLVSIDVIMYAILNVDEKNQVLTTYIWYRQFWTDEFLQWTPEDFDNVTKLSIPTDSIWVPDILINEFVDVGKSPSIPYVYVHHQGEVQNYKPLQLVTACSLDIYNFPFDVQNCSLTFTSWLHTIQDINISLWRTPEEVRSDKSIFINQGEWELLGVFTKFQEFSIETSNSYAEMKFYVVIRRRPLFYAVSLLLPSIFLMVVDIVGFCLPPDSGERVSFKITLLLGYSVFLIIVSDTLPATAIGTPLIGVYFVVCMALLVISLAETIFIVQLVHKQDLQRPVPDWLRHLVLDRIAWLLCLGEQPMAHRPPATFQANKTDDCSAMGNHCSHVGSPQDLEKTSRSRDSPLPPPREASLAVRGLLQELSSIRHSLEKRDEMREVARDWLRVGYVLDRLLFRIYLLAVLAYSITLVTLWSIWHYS", "assay": "Bezold-Jarish test in the anaesthetised rat (reduction of heart rate)", "assay_type": "in vivo", "set-up": "evokes in the anaesthetised rat, a short-lived reduction of heart rate (Bezold-Jarish effect); from tissue; host or cells: whole animal: urethane-anaesthetised Sprague-Dawley rat", "conditions": "for inhibition of the Bezold-Jarish effect evoked by compounds of formula (I'): anaesthetised rat; for ED50: rat, read-out: ID50 i.v. (dose which inhibits by 50% the heart rate)", "experimental": "Selective 5-HT3 agonist activity of the compounds of formula (I') was confirmed in vivo in the Bezold-Jarish test. In this test, intravenous administration of the compounds of formula (I') evokes in the anaesthetised rat, a short-lived reduction of heart rate (Bezold-Jarish effect).\nMore particularly, the Bezold-Jarish effect evoked by the compounds of formula (I') was evaluated using Sprague-Dawley rats weighing from 200 to 300 g, anaesthetised with urethane 1.25 g/kg i.p. The blood pressure was recorded from the carotid artery and heart rate was evaluated, as pulse frequency, by means of a cardiotachometer. A catheter was inserted into the jugular vein for the administration of the substances."}, "5-HT3 receptors [2]": {"test_system": "5-HT3 receptors", "assay": "fecal excretion in rats (intestinal prokinetic activity)", "assay_type": "in vivo", "experimental": "Said activity was investigated by means of a test aimed at evaluating fecal excretion in rats. […] The compounds of formula (I') to be tested were administered subcutaneously. The treatment schedule provided for 8 animals in each group. At the time of drug treatment, the rectal lumen was manually emptied from any residual feces and the animals were then placed again into their cages. 90 Minutes after the treatment the fecal pellets were collected, their number was determined and their wet weight measured. They were then put in the oven and dried for 10 hours at 40° C. for the determination of the dry weight. The parameter used to evaluate the activity of the test compounds was the dry weight (in grams) of the feces excreted during the 90 minutes following the subcutaneous administration of the test compound."}, "adrenergic sites α1": {"biological_target": "adrenergic sites α1", "assay": "displacement of labelled specific ligand from adrenergic sites α1", "assay_type": "binding", "conditions": "no affinity", "excerpt": "(§1) This affinity for 5-HT3 receptors is also selective."}, "serotonin uptake sites": {"biological_target": "serotonin uptake sites (Homo sapiens, UniProt P31645)", "sequence (P31645 whole entry)": "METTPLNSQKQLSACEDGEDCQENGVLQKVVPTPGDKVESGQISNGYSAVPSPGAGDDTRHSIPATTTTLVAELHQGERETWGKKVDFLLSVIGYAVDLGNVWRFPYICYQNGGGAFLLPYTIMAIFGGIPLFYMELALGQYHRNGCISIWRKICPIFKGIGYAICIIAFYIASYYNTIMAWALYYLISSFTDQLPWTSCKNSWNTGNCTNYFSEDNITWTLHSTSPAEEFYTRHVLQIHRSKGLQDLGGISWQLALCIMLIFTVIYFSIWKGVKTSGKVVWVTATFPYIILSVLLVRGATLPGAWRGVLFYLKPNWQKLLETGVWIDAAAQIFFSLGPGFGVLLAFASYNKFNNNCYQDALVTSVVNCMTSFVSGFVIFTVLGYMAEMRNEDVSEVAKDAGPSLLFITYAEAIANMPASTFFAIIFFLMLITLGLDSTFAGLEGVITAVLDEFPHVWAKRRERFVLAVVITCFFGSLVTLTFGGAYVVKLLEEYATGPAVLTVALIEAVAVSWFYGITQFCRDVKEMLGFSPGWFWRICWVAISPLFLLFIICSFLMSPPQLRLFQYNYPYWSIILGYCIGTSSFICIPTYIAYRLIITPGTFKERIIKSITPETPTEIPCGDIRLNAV", "assay": "[3H] paroxetine displacement test", "assay_type": "binding", "excerpt": "as §1"}, "5-HT1A receptors": {"biological_target": "T2, 5-HT1A receptors (Homo sapiens, UniProt P08908)", "T2 sequence (P08908 1-422)": "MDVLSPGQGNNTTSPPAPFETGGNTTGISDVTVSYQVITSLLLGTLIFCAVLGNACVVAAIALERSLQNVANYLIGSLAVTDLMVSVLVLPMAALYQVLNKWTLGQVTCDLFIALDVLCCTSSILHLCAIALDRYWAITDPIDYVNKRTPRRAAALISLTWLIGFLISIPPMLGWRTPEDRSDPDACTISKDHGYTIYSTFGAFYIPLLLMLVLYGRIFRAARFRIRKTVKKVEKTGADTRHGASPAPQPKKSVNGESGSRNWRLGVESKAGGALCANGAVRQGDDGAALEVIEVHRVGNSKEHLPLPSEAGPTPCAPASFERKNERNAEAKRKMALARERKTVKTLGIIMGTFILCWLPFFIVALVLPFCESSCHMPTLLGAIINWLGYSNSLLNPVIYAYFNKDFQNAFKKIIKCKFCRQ", "assay": "displacement of labelled specific ligand from 5-HT1A receptors", "assay_type": "binding", "conditions": "no affinity", "excerpt": "as §1"}, "5-HT1B receptors": {"biological_target": "5-HT1B receptors (Rattus norvegicus, UniProt P28564)", "sequence (P28564 whole entry)": "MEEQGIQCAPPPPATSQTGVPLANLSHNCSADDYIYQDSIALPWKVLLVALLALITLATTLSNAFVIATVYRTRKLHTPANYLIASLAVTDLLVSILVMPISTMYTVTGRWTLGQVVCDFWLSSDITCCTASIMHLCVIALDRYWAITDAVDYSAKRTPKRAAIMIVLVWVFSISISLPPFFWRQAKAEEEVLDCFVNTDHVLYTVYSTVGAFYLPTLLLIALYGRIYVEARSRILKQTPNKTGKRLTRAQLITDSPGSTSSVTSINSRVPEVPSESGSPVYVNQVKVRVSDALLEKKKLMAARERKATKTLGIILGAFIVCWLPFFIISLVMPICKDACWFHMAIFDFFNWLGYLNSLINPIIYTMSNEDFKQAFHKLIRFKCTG", "assay": "displacement of labelled specific ligand from 5-HT1B receptors", "assay_type": "binding", "conditions": "no affinity", "excerpt": "as §1"}, "[3]": {"test_system": "5-HT3 receptors (mice striatum)", "assay": "turning test in mice", "assay_type": "in vivo", "conditions": "for turning behaviour after injection into the mice striatum: intrastriatal injection, inhibited by 5-HT3 receptor antagonists", "excerpt": "CM 57227 was also studied in the \"turning\" test carried out as described by P. Worms et al. in Life Sciences, 1986, 39, 2199-2208."}, "central 5-HT3 receptors": {"biological_target": "T3, central 5-HT3 receptors (Mus musculus, UniProt P23979)", "T3 construct": "from tissue; host or cells: cortical cerebral membranes of mice dosed intraperitoneally", "T3 sequence (P23979 24-489)": "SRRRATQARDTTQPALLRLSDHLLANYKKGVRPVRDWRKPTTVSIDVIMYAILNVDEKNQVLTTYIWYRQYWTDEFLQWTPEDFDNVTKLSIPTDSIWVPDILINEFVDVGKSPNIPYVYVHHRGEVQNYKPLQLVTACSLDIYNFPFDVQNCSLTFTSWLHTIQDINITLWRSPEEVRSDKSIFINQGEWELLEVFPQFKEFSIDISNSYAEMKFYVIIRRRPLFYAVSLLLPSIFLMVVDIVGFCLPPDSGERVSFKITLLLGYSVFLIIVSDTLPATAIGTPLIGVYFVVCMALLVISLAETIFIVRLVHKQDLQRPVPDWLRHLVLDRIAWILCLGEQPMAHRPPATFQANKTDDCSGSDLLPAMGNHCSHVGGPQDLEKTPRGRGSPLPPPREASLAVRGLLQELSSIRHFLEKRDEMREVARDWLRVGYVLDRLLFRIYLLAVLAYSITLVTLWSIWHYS", "assay": "ex vivo inhibition of [3H] BRL 43694 specific binding to cortical cerebral membranes in mice"}, "dopaminergic sites D2": {"biological_target": "dopaminergic sites D2 (Homo sapiens, UniProt P14416)", "sequence (P14416 whole entry)": "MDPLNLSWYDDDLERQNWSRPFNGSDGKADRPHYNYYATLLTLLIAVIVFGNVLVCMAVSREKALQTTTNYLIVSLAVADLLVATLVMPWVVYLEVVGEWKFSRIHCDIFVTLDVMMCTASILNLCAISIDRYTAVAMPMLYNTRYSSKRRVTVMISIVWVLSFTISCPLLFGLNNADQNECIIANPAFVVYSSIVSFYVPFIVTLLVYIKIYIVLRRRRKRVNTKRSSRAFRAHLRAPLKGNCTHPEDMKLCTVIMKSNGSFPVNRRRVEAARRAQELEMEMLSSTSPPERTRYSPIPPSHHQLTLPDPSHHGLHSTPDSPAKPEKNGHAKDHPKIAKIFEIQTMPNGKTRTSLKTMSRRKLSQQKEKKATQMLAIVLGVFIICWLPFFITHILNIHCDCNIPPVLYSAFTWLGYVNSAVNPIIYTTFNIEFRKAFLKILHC", "assay": "displacement of labelled specific ligand from dopaminergic sites D2", "assay_type": "binding", "conditions": "no affinity", "excerpt": "as §1"}, "dopaminergic sites D1": {"biological_target": "dopaminergic sites D1 (Homo sapiens, UniProt P21728)", "sequence (P21728 whole entry)": "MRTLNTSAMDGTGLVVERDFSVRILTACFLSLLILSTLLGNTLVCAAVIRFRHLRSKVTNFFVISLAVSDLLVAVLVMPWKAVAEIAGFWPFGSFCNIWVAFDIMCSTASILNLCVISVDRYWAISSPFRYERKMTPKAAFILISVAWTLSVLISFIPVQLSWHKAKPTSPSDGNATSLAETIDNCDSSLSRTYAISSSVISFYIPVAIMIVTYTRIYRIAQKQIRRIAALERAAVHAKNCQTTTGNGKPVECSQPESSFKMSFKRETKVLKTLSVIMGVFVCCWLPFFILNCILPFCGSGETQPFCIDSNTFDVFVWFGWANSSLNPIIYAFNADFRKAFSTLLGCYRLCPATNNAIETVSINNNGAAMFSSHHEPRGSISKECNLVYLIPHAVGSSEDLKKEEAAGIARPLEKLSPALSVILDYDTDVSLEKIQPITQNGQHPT", "assay": "displacement of labelled specific ligand from dopaminergic sites D1", "assay_type": "binding", "conditions": "no affinity", "excerpt": "as §1"}, "adrenergic sites β1": {"biological_target": "adrenergic sites β1 (Homo sapiens, UniProt P08588)", "sequence (P08588 whole entry)": "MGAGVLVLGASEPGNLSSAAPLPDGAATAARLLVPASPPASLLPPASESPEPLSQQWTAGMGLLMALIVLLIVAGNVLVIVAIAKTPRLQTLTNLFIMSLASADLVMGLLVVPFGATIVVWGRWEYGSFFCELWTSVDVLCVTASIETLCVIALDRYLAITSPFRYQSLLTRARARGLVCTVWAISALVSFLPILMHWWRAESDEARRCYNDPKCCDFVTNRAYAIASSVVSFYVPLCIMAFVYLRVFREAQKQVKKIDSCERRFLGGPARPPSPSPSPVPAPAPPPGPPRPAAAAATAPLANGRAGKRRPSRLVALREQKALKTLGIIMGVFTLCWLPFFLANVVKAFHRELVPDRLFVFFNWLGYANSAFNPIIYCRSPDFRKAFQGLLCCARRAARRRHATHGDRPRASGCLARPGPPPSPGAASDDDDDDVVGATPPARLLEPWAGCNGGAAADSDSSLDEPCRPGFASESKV", "assay": "displacement of labelled specific ligand from adrenergic sites β1", "assay_type": "binding", "conditions": "no affinity", "excerpt": "as §1"}, "adrenergic sites α2": {"biological_target": "adrenergic sites α2", "assay": "displacement of labelled specific ligand from adrenergic sites α2", "assay_type": "binding", "conditions": "no affinity", "excerpt": "as §1"}, "5-HT3 receptors [4]": {"biological_target": "T1, 5-HT3 receptors", "assay": "biochemical", "assay_type": "binding", "set-up": "the cortical tissue from 4 animals was homogenized in 20 volumes of HEPES; from tissue; host or cells: cerebral cortical membranes of male rats (about 200 g)", "procedure": "The potency of the compounds of formula (I') in displacing [^3 H]\nFor the preparation of cerebral membranes, male rats weighing about 200 g and sacrificed by decapitation were employed. […] In summary, the cortical tissue from 4 animals was homogenized in 20 volumes of HEPES and kept at 4° C. until used in the binding assays."}}, "note": "Where two headings read alike, the source gives them in different places.", "data": [{"smiles": "CC[C@@H](CO)NC(=O)[C@@H]1C=C2c3cccc4c3c(cn4C)C[C@H]2N(C)C1", "note": "[methysergide]", "values": [{"measurement": "inhibition of the Bezold-Jarish effect evoked by compounds of formula (I')", "setting": "5-HT3 receptors [1]", "value": "not inhibited"}]}, {"smiles": "Cl.NC1CCN(c2cccc(Cl)n2)CC1", "note": "[CM 57227, 4-amino-1-(6-chloro-2-pyridyl)piperidine hydrochloride]", "values": [{"measurement": "dry weight of feces excreted during 90 minutes", "setting": "5-HT3 receptors [2]; 2.5 mg/kg s.c.", "value": "about 1.3 g"}, {"measurement": "Ki", "setting": "adrenergic sites α1", "value": "> 10", "unit": "µM"}, {"measurement": "Ki", "setting": "serotonin uptake sites", "value": "> 10", "unit": "µM"}, {"measurement": "Ki", "setting": "5-HT1A receptors", "value": "> 10", "unit": "µM"}, {"measurement": "Ki", "setting": "5-HT1B receptors", "value": "> 10", "unit": "µM"}, {"measurement": "ED50", "setting": "[3]; Mus musculus, ip, mice, test compound i.p., ondansetron 1 mg/kg i.p., intrastriatal 2-methylserotonin, read-out: ED50, blockade of ondansetron antagonism of 2-methylserotonin-induced turning behaviour", "value": 0.25, "unit": "mg/kg"}, {"measurement": "turning behaviour after injection into the mice striatum", "setting": "[3]", "value": "evokes a turning behaviour"}, {"measurement": "ED50", "setting": "5-HT3 receptors [1]; iv", "value": 0.00829, "unit": "mg/kg"}, {"measurement": "ID50 p.o., extrapolated to zero dilution", "setting": "central 5-HT3 receptors; mice, oral administration, compared with ID50 i.p. of 1 mg/kg", "value": "of the same magnitude order"}, {"measurement": "ED50", "setting": "central 5-HT3 receptors; mouse, ip, 0.5 h, read-out: ID50 i.p., extrapolated to zero dilution (dose inhibiting by 50% [3H] BRL 43694 binding), mice, 30 minutes after i.p. administration", "value": 1, "unit": "mg/kg"}, {"measurement": "ID50 for [3H] BRL 43694 binding compared with ID50 for [3H] paroxetine (serotonin uptake sites)", "setting": "central 5-HT3 receptors; same experimental conditions", "value": "markedly lower"}, {"measurement": "Ki", "setting": "dopaminergic sites D2", "value": "> 10", "unit": "µM"}, {"measurement": "Ki", "setting": "dopaminergic sites D1", "value": "> 10", "unit": "µM"}, {"measurement": "Ki", "setting": "adrenergic sites β1", "value": "> 10", "unit": "µM"}, {"measurement": "Ki", "setting": "adrenergic sites α2", "value": "> 10", "unit": "µM"}, {"measurement": "Ki", "setting": "5-HT3 receptors [4]; 0.5 nM [3H] BRL 43694, 30 minutes at 25° C., rat cortical membranes, read-out: Ki, displacement of [3H] BRL 43694", "value": 0.193, "unit": "µM"}]}, {"smiles": "NCCc1c[nH]c2ccc(O)cc12", "note": "[serotonin]", "values": [{"measurement": "ED50", "setting": "5-HT3 receptors [1]; iv", "value": 0.0136, "unit": "mg/kg"}]}, {"smiles": "COc1cc(N)c(Cl)cc1C(=O)NC1CN2CCC1CC2", "note": "(stereo not shown) [zacopride]", "values": [{"measurement": "antagonism of the fecal excretion stimulating activity of compounds of formula (I')", "setting": "5-HT3 receptors [2]", "value": "antagonised"}, {"measurement": "inhibition of the Bezold-Jarish effect evoked by compounds of formula (I')", "setting": "5-HT3 receptors [1]", "value": "inhibited"}]}, {"smiles": "Cc1[nH]c2ccc(O)cc2c1CCN", "note": "[2-methylserotonin, reference compound]", "values": [{"measurement": "turning behaviour after injection into the mice striatum", "setting": "[3]", "value": "evokes a turning behaviour"}, {"measurement": "ED50", "setting": "5-HT3 receptors [1]; anaesthetised Sprague-Dawley rats, intravenous", "value": 0.005, "unit": "mg/kg"}, {"measurement": "Ki", "setting": "5-HT3 receptors [4]", "value": 1.11, "unit": "µM"}]}, {"smiles": "CN1C2CCC1CC(OC(=O)c1c[nH]c3ccccc13)C2", "note": "(stereo not shown) [ICS 205-930]", "values": [{"measurement": "antagonism of the fecal excretion stimulating activity of compounds of formula (I')", "setting": "5-HT3 receptors [2]", "value": "antagonised"}, {"measurement": "inhibition of the Bezold-Jarish effect evoked by compounds of formula (I')", "setting": "5-HT3 receptors [1]", "value": "inhibited"}]}]}
